Test results: patent publication US12723063B2, “GIPR-agonist compounds” (Eli Lilly and Company, priority 2019, dated 2026)
*1 amine or outer side, *2 acyl side, *3 side chain or, on linkers, in order; H or OH if unused. Where a SMILES comes first, the peptide text is derived from it. Side-chain parts run from the residue outwards. [ ]: non-standard residue; d: D form. The star is where a group is joined. C20 diacid = O=C(O)CCCCCCCCCCCCCCCCCCC(=O)*; C18 diacid = O=C(O)CCCCCCCCCCCCCCCCC(=O)*; γGlu = O=C(O)[C@H](CCC(=O)[*:2])N[*:1]; αMeF = C[C@](N)(Cc1ccccc1)C(=O)O; 4Pal = N[C@@H](Cc1ccncc1)C(=O)O; αMeL = CC(C)C[C@](C)(N)C(=O)O; AEEA = NCCOCCOCC(=O)O; Aib = CC(C)(N)C(=O)O

Experiments:
Assay in all cases: cAMP functional assay (HTRF) in HEK293 cells in presence of 0.1% casein
Type in all cases: cell-based
[1] = molecular target: T1, human glucose-dependent insulinotropic peptide receptor (GIPR) (Homo sapiens, UniProt P48546); conditions: HEK293 cells expressing human GIPR, geometric mean, read-out: hGIPR cAMP Rel EC50 nM (SEM, n)
T1 construct: expressed in transfected cells; host or cells: HEK293
T1 sequence (P48546 22-466): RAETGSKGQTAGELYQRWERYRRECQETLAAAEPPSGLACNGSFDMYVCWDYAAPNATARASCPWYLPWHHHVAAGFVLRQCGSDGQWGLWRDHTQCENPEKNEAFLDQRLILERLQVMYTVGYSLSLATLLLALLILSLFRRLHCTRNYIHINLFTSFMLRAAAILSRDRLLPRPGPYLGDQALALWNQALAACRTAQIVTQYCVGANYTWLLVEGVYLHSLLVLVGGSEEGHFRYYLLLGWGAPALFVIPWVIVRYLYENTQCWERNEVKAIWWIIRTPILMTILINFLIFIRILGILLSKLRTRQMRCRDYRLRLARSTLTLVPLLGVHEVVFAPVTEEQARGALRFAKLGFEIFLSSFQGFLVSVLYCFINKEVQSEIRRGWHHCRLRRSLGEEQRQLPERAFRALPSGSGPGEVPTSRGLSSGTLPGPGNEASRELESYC

[2] = molecular target: T2, human glucagon receptor (GcgR) (Homo sapiens, UniProt P47871); conditions: HEK293 cells expressing human GcgR, geometric mean, read-out: hGcgR cAMP Rel EC50 nM (SEM, n)
T2 construct: expressed in transfected cells; host or cells: HEK293

[3] = molecular target: T3, human GLP-1 receptor (GLP-1R) (Homo sapiens, UniProt P43220); conditions: HEK293 cells expressing human GLP-1R, geometric mean, read-out: hGLP1R cAMP Rel EC50 nM (SEM, n)
T3 construct: expressed in transfected cells; host or cells: HEK293
T3 sequence (P43220 24-463): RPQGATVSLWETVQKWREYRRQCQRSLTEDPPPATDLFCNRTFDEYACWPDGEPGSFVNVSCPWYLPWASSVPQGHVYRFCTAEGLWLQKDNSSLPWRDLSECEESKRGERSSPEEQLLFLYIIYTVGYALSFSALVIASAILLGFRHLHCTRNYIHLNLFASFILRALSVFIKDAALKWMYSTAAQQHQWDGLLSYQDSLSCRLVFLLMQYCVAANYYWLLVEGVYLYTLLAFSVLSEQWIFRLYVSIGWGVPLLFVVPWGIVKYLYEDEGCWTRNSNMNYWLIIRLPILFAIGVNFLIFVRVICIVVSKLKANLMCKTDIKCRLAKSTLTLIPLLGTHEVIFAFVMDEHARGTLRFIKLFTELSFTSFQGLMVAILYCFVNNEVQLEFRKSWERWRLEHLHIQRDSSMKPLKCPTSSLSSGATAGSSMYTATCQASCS

T2 sequence (P47871 26-477): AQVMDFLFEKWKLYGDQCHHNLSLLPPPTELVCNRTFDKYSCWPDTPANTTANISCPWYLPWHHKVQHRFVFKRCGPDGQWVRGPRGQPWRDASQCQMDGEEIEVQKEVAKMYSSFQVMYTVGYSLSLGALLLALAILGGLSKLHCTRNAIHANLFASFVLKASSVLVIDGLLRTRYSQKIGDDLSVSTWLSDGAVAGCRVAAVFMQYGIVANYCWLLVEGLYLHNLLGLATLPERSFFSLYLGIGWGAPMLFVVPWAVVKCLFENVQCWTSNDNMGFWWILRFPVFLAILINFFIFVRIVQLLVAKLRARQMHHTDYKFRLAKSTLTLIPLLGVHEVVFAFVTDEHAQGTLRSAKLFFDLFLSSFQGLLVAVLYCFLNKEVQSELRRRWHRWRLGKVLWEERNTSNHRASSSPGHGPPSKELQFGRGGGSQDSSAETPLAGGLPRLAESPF

Structure (SMILES)	EC50 [1] [nM]	EC50 [2] [nM]	EC50 [3] [nM]
CC[C@H](C)[C@H](NC(=O)[C@H](CO)NC(=O)[C@H](Cc1ccc(O)cc1)NC(=O)[C@H](CC(=O)O)NC(=O)[C@H](CO)NC(=O)[C@@H](NC(=O)[C@](C)(Cc1ccccc1)NC(=O)[C@@H](NC(=O)CNC(=O)[C@H](CCC(=O)O)NC(=O)C(C)(C)NC(=O)[C@@H](N)Cc1ccc(O)cc1)[C@@H](C)O)[C@@H](C)CC)C(=O)N[C@@H](C)C(=O)N[C@@H](CC(C)C)C(=O)N[C@@H](CC(=O)O)C(=O)N[C@@H](CCCCN)C(=O)N[C@@H](CCCCNC(=O)COCCOCCNC(=O)COCCOCCNC(=O)CC[C@H](NC(=O)CCCCCCCCCCCCCCCCCCC(=O)O)C(=O)O)C(=O)N[C@@H](Cc1c[nH]cn1)C(=O)N[C@@H](CCC(N)=O)C(=O)NC(C)(C)C(=O)N[C@@H](CCC(=O)O)C(=O)N[C@@H](Cc1ccccc1)C(=O)N[C@H](C(=O)N[C@@H](CC(N)=O)C(=O)N[C@@H](Cc1c[nH]c2ccccc12)C(=O)N[C@@H](CC(C)C)C(=O)N[C@@H](CC(C)C)C(=O)N[C@@H](C)C(=O)NCC(=O)NCC(=O)N1CCC[C@H]1C(=O)N[C@@H](CO)C(=O)N[C@@H](CO)C(=O)NCC(=O)N[C@@H](C)C(=O)N1CCC[C@H]1C(=O)N1CCC[C@H]1C(=O)N1CCC[C@H]1C(=O)N[C@@H](CO)C(N)=O)C(C)C [Example 25] (H-Y[Aib]EGT[αMeF]ISDYSIALDKK([AEEA-AEEA-γGlu-C20 diacid])HQ[Aib]EFVNWLLAGGPSSGAPPPS-NH2)	0.0155	> 5000	8.39
CC[C@H](C)[C@H](NC(=O)[C@H](CO)NC(=O)[C@H](Cc1ccc(O)cc1)NC(=O)[C@H](CC(=O)O)NC(=O)[C@H](CO)NC(=O)[C@@H](NC(=O)[C@H](Cc1ccccc1)NC(=O)[C@@H](NC(=O)CNC(=O)[C@H](CCC(=O)O)NC(=O)[C@@H](C)NC(=O)[C@@H](N)Cc1ccc(O)cc1)[C@@H](C)O)[C@@H](C)CC)C(=O)N[C@@H](CC(C)C)C(=O)N[C@@H](CC(C)C)C(=O)N[C@@H](CC(=O)O)C(=O)N[C@@H](CCCCN)C(=O)N[C@@H](CCCCNC(=O)COCCOCCNC(=O)COCCOCCNC(=O)CC[C@H](NC(=O)CCCCCCCCCCCCCCCCC(=O)O)C(=O)O)C(=O)N[C@@H](C)C(=O)N[C@@H](CCC(N)=O)C(=O)NC(C)(C)C(=O)N[C@@H](CC(=O)O)C(=O)N[C@@H](Cc1ccccc1)C(=O)N[C@H](C(=O)N[C@@H](CC(N)=O)C(=O)N[C@@H](Cc1ccncc1)C(=O)N[C@@H](CC(C)C)C(=O)N[C@@H](CC(C)C)C(=O)N[C@@H](C)C(=O)N[C@@H](CCC(N)=O)C(=O)NCC(=O)N1CCC[C@H]1C(=O)N[C@@H](CO)C(=O)N[C@@H](CO)C(=O)NCC(=O)N[C@@H](C)C(=O)N1CCC[C@H]1C(=O)N1CCC[C@H]1C(=O)N1CCC[C@H]1C(=O)N[C@@H](CO)C(N)=O)C(C)C [Example 18] (H-Y[dA]EGTFISDYSILLDKK([AEEA-AEEA-γGlu-C18 diacid])AQ[Aib]DFVN[4Pal]LLAQGPSSGAPPPS-NH2)	0.00656	> 5000	> 5000
CC[C@H](C)[C@H](NC(=O)[C@H](Cc1ccccc1)NC(=O)[C@@H](NC(=O)CNC(=O)[C@H](CCC(=O)O)NC(=O)C(C)(C)NC(=O)[C@@H](N)Cc1ccc(O)cc1)[C@@H](C)O)C(=O)N[C@@H](CO)C(=O)N[C@@H](CC(=O)O)C(=O)N[C@@H](Cc1ccc(O)cc1)C(=O)N[C@@H](CO)C(=O)N[C@H](C(=O)N[C@@](C)(CC(C)C)C(=O)N[C@@H](CC(C)C)C(=O)N[C@@H](CC(=O)O)C(=O)N[C@@H](CCC(=O)O)C(=O)N[C@@H](CCCCNC(=O)COCCOCCNC(=O)COCCOCCNC(=O)CC[C@H](NC(=O)CCCCCCCCCCCCCCCCCCC(=O)O)C(=O)O)C(=O)N[C@@H](Cc1c[nH]cn1)C(=O)N[C@@H](CCC(N)=O)C(=O)NC(C)(C)C(=O)N[C@@H](CC(=O)O)C(=O)N[C@@H](Cc1ccccc1)C(=O)N[C@H](C(=O)N[C@@H](CCC(=O)O)C(=O)N[C@@H](Cc1ccncc1)C(=O)N[C@@H](CC(C)C)C(=O)N[C@@H](CC(C)C)C(=O)N[C@@H](C)C(=O)N[C@H](C(=O)NCC(=O)N1CCC[C@H]1C(=O)N[C@@H](CO)C(=O)N[C@@H](CO)C(=O)NCC(=O)N[C@@H](C)C(=O)N1CCC[C@H]1C(=O)N1CCC[C@H]1C(=O)N1CCC[C@H]1C(=O)N[C@@H](CO)C(N)=O)[C@@H](C)O)C(C)C)[C@@H](C)CC [Example 83] (H-Y[Aib]EGTFISDYSI[αMeL]LDEK([AEEA-AEEA-γGlu-C20 diacid])HQ[Aib]DFVE[4Pal]LLATGPSSGAPPPS-NH2)	0.0432	> 5000	> 5000
CC[C@H](C)[C@H](NC(=O)[C@H](CO)NC(=O)[C@H](Cc1ccc(O)cc1)NC(=O)[C@H](CC(=O)O)NC(=O)[C@H](CO)NC(=O)[C@@H](NC(=O)[C@H](Cc1ccccc1)NC(=O)[C@@H](NC(=O)CNC(=O)[C@H](CCC(=O)O)NC(=O)[C@@H](C)NC(=O)[C@@H](N)Cc1ccc(O)cc1)[C@@H](C)O)[C@@H](C)CC)C(=O)N[C@@H](CC(C)C)C(=O)N[C@@H](CC(C)C)C(=O)N[C@@H](CC(=O)O)C(=O)N[C@@H](CCCCN)C(=O)N[C@@H](CCCCNC(=O)COCCOCCNC(=O)COCCOCCNC(=O)CC[C@H](NC(=O)CCCCCCCCCCCCCCCCCCC(=O)O)C(=O)O)C(=O)N[C@@H](Cc1c[nH]cn1)C(=O)N[C@@H](CCC(N)=O)C(=O)N[C@@H](CCC(N)=O)C(=O)N[C@@H](CC(=O)O)C(=O)N[C@@H](Cc1ccccc1)C(=O)N[C@H](C(=O)N[C@@H](CC(N)=O)C(=O)N[C@@H](Cc1c[nH]c2ccccc12)C(=O)N[C@@H](CC(C)C)C(=O)N[C@@H](CC(C)C)C(=O)N[C@@H](C)C(=O)NCC(=O)NCC(=O)N1CCC[C@H]1C(=O)N[C@@H](CO)C(=O)N[C@@H](CO)C(=O)NCC(=O)N[C@@H](C)C(=O)N1CCC[C@H]1C(=O)N1CCC[C@H]1C(=O)N1CCC[C@H]1C(=O)N[C@@H](CO)C(N)=O)C(C)C [Example 10] (H-Y[dA]EGTFISDYSILLDKK([AEEA-AEEA-γGlu-C20 diacid])HQQDFVNWLLAGGPSSGAPPPS-NH2)	0.611	> 5000	> 100
CC[C@H](C)[C@H](NC(=O)[C@H](CCCCN)NC(=O)[C@H](CC(=O)O)NC(=O)[C@H](CC(C)C)NC(=O)[C@](C)(CC(C)C)NC(=O)[C@@H](NC(=O)[C@H](CO)NC(=O)[C@H](Cc1ccc(O)cc1)NC(=O)[C@H](CC(=O)O)NC(=O)[C@H](CO)NC(=O)[C@@H](NC(=O)[C@H](Cc1ccccc1)NC(=O)[C@@H](NC(=O)CNC(=O)[C@H](CCC(=O)O)NC(=O)C(C)(C)NC(=O)[C@@H](N)Cc1ccc(O)cc1)[C@@H](C)O)[C@@H](C)CC)[C@@H](C)CC)C(=O)N[C@@H](Cc1c[nH]cn1)C(=O)N[C@@H](CCC(N)=O)C(=O)NC(C)(C)C(=O)N[C@@H](CC(=O)O)C(=O)N[C@@H](Cc1ccccc1)C(=O)N[C@H](C(=O)N[C@@H](CCC(=O)O)C(=O)N[C@@H](Cc1ccc(O)cc1)C(=O)N[C@@H](CCCCNC(=O)COCCOCCNC(=O)COCCOCCNC(=O)CC[C@H](NC(=O)CCCCCCCCCCCCCCCCCCC(=O)O)C(=O)O)C(=O)N[C@@H](CC(C)C)C(=O)N[C@@H](CCC(=O)O)C(=O)N[C@@H](CCC(N)=O)C(=O)NCC(=O)N1CCC[C@H]1C(=O)N[C@@H](CO)C(=O)N[C@@H](CO)C(=O)NCC(=O)N[C@@H](C)C(=O)N1CCC[C@H]1C(=O)N1CCC[C@H]1C(=O)N1CCC[C@H]1C(=O)N[C@@H](CO)C(N)=O)C(C)C [Example 92] (H-Y[Aib]EGTFISDYSI[αMeL]LDKIHQ[Aib]DFVEYK([AEEA-AEEA-γGlu-C20 diacid])LEQGPSSGAPPPS-NH2)	0.0191	> 5000	> 5000
CC[C@H](C)[C@H](NC(=O)[C@H](Cc1ccccc1)NC(=O)[C@@H](NC(=O)CNC(=O)[C@H](CCC(=O)O)NC(=O)C(C)(C)NC(=O)[C@@H](N)Cc1ccc(O)cc1)[C@@H](C)O)C(=O)N[C@@H](CO)C(=O)N[C@@H](CC(=O)O)C(=O)N[C@@H](Cc1ccc(O)cc1)C(=O)N[C@@H](CO)C(=O)N[C@H](C(=O)N[C@@](C)(CC(C)C)C(=O)N[C@@H](CC(C)C)C(=O)N[C@@H](CC(=O)O)C(=O)N[C@@H](CCCCN)C(=O)N[C@@H](CCCCNC(=O)COCCOCCNC(=O)COCCOCCNC(=O)CC[C@H](NC(=O)CCCCCCCCCCCCCCCCCCC(=O)O)C(=O)O)C(=O)N[C@@H](Cc1c[nH]cn1)C(=O)N[C@@H](CCC(N)=O)C(=O)NC(C)(C)C(=O)N[C@@H](CC(=O)O)C(=O)N[C@@H](Cc1ccccc1)C(=O)N[C@H](C(=O)N[C@@H](CCC(=O)O)C(=O)N[C@@H](Cc1ccncc1)C(=O)N[C@@H](CC(C)C)C(=O)N[C@@H](CC(C)C)C(=O)N[C@@H](C)C(=O)N[C@@H](C)C(=O)NCC(=O)N1CCC[C@H]1C(=O)N[C@@H](CO)C(=O)N[C@@H](CO)C(=O)NCC(=O)N[C@@H](C)C(=O)N1CCC[C@H]1C(=O)N1CCC[C@H]1C(=O)N1CCC[C@H]1C(=O)N[C@@H](CO)C(N)=O)C(C)C)[C@@H](C)CC [Example 78]	0.0125	3000	> 5000
